Laboratory results as given in publication PMC2709242 (Molecular cell, 2009).

Tests used:
[1] = tested on: K63-linked diUb (K63-Ub2); test: Fluorescence anisotropy binding to K63-linked diUb
[2] = tested on: K63-Ub4; test: Fluorescence anisotropy binding to K63-linked tetraUb; details: ratio of Kd values, solution-state measurements

linkage selectivity for diUb (K63-Ub2 vs K48-Ub2), in words [1]	K63-Ub2 binding affinity, in words ([1]; compared with other tUIM peptides)	preference for K63-Ub4 over K48-Ub4 [2] [fold]	Molecule
very little selectivity	substantially more weakly	–	REVNSQEREVNSQE: Rap80 tUIM peptide with linker between UIMs extended to 14 residues
–	–	7	Rap80 (residues 1 - 233): soluble fragment of Rap80 longer than the minimal tUIMs (protein, UniProt Q96RL1 1-233, looked up, fragment) MPRRKKKVKEVSESRNLEKKDVETTSSVSVKRKRRLEDAFIVISDSDGEEPKEENGLQKTKTKQSNRAKCLAKRKIAQMTEEEQFALALKMSEQEAREVNSQEEEEEELLRKAIAESLNSCRPSDASATRSRPLATGPSSQSHQEKTTDSGLTEGIWQLVPPSLFKGSHISQGNEAEEREEPWDHTEKTEEEPVSGSSGSWDQSSQPVFENVNVKSFDRCTGHSAEHTQCGKP
